From ChEMBL document CHEMBL6120962, “New Mitochondria-Targeted Fisetin Derivative Compromises Mitophagy and Limits Survival of Drug-Induced Senescent Breast Cancer Cells” (J Med Chem, 2024)
Activity calls are given as the source filed them. The rule behind the calls is not given here.

Experiments:
ZR-75-30 [1] = test: Induction of apoptosis in tamoxifen-induced senescent human ZR-75-30 cells assessed as increase in caspase 9 level incubated for 24 hrs by immunostaining based imaging cytometric analysis; assay type: functional, cell-based
HCC1428 [2] = test: Anticancer activity against ER-positive human HCC1428 cells assessed as effect on metabolic activity upto 10 uM incubated for 24 hrs by MTT assay; assay type: functional, cell-based
HCC1428 [3] = test: Induction of AMPK phosphorylation in tamoxifen-induced senescent human HCC1428 cells incubated for 24 hrs by immunostaining based imaging cytometric analysis; assay type: cell-based; conditions: filed as activator
HCC1428 [4] = test: Induction of mitochondrial dysfunction in tamoxifen-induced senescent human HCC1428 cells assessed as decrease in spare respiratory capacity at 5 uM incubated for 6 hrs by real-time analysis; assay type: functional, cell-based
MCF-10F [5] = test: Induction of mitochondrial dysfunction in tamoxifen-induced senescent human MCF-10F cells assessed as increase in proton leak at 5 uM incubated for 6 hrs by real-time analysis; assay type: functional, cell-based
Mitochondrial membrane [6] = test: Induction of mitochondrial membrane potential depolarization in tamoxifen-induced senescent human ZR-75-30 cells assessed as increase in depolarized dead cell level at 1 to 5 uM incubated for 24 hrs by 7-AAD staining based flow cytometric analysis; assay type: cell membranes; conditions: dose 1-5 µM
ZR-75-30 [7] = test: Anticancer activity against ER-positive human ZR-75-30 cells assessed as effect on metabolic activity upto 10 uM incubated for 24 hrs by MTT assay; assay type: functional, cell-based
ZR-75-30 [8] = test: Induction of apoptosis in human ZR-75-30 cells assessed as decrease in Bcl2 level at 1 to 5 uM incubated for 24 hrs by Western blot analysis; assay type: functional, cell-based; conditions: dose 1-5 µM
HCC1428 [9] = test: Induction of apoptosis in human HCC1428 cells assessed as decrease in Bcl2 level at 1 to 5 uM incubated for 24 hrs by Western blot analysis; assay type: functional, cell-based; conditions: dose 1-5 µM
MCF-10F [10] = test: Induction of mitochondrial dysfunction in human MCF-10F cells assessed as decrease in coupling efficiency at 5 uM incubated for 6 hrs by real time analysis; assay type: functional, cell-based
HCC1428 [11] = test: Induction of mitochondrial dysfunction in human HCC1428 cells assessed as increase in proton leak at 5 uM incubated for 6 hrs by real time analysis; assay type: functional, cell-based
HCC1428 [12] = test: Induction of apoptosis in human HCC1428 cells assessed as decrease in AKT level at 1 to 5 uM incubated for 24 hrs by Western blotting analysis; assay type: functional, cell-based; conditions: dose 1-5 µM
Mitochondrial membrane [13] = test: Induction of mitochondrial membrane potential depolarization in human HCC1428 cells at 1 uM incubated for 24 hrs by 7-AAD staining based flow cytometric analysis; assay type: cell membranes
MCF-10F [14] = test: Induction of mitochondrial dysfunction in tamoxifen-induced senescent human MCF-10F cells assessed as decrease in spare respiratory capacity at 5 uM incubated for 6 hrs by real-time analysis; assay type: functional, cell-based
CAMA-1 [15] = test: Induction of oxidative stress in tamoxifen-induced senescent human CAMA-1 cells assessed as increase in mitochondrial superoxide production at 1 to 5 uM incubated for 24 hrs by MitoSOX red superoxide indicator based fluorescence analysis; assay type: functional, cell-based; conditions: dose 1-5 µM
CAMA-1 [16] = test: Induction of apoptosis in tamoxifen-induced senescent human CAMA-1 cells assessed as phosphatidylserine externalization at 1 to 5 uM incubated for 24 hrs by Annexin V-FITC staining based flow cytometric analysis; assay type: functional, cell-based; conditions: dose 1-5 µM
[17] = molecular target: T1, Mixed lineage kinase domain-like protein (Homo sapiens) (UniProt Q8NB16); test: Induction of MLKL phosphorylation in human HCC1428 cells at 1 to 5 uM incubated for 24 hrs by Western blot analysis; assay type: cell-based; conditions: dose 1-5 µM
T1 sequence (whole entry): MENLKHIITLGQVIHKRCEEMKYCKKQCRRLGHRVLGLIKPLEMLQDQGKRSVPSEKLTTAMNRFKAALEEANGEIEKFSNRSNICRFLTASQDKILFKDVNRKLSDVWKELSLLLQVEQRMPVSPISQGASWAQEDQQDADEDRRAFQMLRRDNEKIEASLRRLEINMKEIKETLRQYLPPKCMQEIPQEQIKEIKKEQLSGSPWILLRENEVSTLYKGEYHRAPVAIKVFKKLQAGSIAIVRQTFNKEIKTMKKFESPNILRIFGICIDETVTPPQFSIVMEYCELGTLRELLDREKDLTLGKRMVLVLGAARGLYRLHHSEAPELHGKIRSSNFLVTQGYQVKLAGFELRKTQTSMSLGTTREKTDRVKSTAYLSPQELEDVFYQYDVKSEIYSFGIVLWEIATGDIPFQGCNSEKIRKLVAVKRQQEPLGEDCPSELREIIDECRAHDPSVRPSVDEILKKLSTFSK

[18] = molecular target: Apoptosis regulator Bcl-2 (Homo sapiens) (UniProt P10415); test: Binding affinity to recombinant human Bcl-2 assessed as interaction by measuring decrease in chemiluminescence signal at 0.01 to 5 uM incubated overnight by dot-blot analysis; conditions: dose 0.01-5 µM
HCC1500 = test: Induction of apoptosis in tamoxifen-induced senescent human HCC1500 cells assessed as decrease in HSP90 level incubated for 24 hrs by immunostaining based imaging cytometric analysis; assay type: functional, cell-based
HCC1428 [19] = test: Induction of ubiquitin-dependent mitophagy in tamoxifen-induced senescent human HCC1428 cells assessed as increase in PINK1 level at 5 uM by immunostaining based imaging cytometric analysis; assay type: functional, cell-based
[20] = molecular target: T2, Receptor-interacting serine/threonine-protein kinase 1 (Homo sapiens) (UniProt Q13546); test: Induction of RIP1 phosphorylation in human HCC1428 cells at 1 to 5 uM incubated for 24 hrs by Western blot analysis; assay type: cell-based; conditions: dose 1-5 µM
T2 sequence (whole entry): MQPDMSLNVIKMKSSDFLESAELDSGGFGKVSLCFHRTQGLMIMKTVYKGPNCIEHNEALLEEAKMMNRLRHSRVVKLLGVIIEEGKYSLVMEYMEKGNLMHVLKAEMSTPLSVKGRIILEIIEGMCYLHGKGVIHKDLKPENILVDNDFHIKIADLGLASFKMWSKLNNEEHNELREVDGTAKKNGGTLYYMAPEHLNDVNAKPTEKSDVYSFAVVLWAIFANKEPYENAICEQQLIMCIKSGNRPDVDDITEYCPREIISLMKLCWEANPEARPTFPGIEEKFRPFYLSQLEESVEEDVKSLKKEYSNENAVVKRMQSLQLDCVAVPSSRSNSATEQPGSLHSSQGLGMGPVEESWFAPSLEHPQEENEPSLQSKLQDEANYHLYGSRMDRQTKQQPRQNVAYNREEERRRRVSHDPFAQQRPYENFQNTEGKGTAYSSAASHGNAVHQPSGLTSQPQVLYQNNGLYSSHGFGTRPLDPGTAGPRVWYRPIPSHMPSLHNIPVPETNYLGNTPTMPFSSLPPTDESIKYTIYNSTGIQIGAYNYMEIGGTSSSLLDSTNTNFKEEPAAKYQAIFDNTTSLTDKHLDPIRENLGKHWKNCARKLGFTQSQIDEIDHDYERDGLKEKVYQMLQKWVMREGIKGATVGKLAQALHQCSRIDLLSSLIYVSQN

HCC1428 [21] = test: Induction of apoptosis in human HCC1428 cells assessed as phosphatidylserine externalization at 1 to 5 uM incubated for 24 hrs by Annexin V-FITC staining based flow cytometric analysis; assay type: functional, cell-based; conditions: dose 1-5 µM
HCC1428 [22] = test: Effect on phosphorylated to unphosphorylated AKT ratio in tamoxifen-induced senescent human HCC1428 cells assessed as decrease in phosphorylated AKT level at 1 to 5 uM incubated for 24 hrs by Western blotting analysis; assay type: functional, cell-based; conditions: dose 1-5 µM

Apoptosis regulator Bcl-2 (Homo sapiens), sequence (P10415 whole entry): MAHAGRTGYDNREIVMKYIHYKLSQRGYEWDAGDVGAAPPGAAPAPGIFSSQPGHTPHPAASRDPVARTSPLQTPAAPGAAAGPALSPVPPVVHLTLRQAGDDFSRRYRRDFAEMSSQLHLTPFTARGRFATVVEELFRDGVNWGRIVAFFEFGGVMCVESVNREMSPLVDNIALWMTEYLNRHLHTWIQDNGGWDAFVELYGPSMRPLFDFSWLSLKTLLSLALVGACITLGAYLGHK

Compound: CC(=O)Oc1ccc2c(=O)c(OCCCC[P+](c3ccccc3)(c3ccccc3)c3ccccc3)c(-c3ccc4c(c3)OC(c3ccccc3)(c3ccccc3)O4)oc2c1.[I-]
- Activity (ZR-75-30 [1]): Active
- Activity (HCC1428 [2]): Active
- Activity (HCC1428 [3]): Active
- Activity (HCC1428 [4]): Active
- Activity (MCF-10F [5]): inactive
- Activity (Mitochondrial membrane [6]): Active
- Activity (ZR-75-30 [7]): Active
- Activity (ZR-75-30 [8]): Active
- Activity (HCC1428 [9]): Active
- Activity (MCF-10F [10]): inactive
- Activity (HCC1428 [11]): Active
- Activity (HCC1428 [12]): Active
- Activity (Mitochondrial membrane [13]): Active
- Activity (MCF-10F [14]): inactive
- Activity (CAMA-1 [15]): Active
- Activity (CAMA-1 [16]): Active
- Activity [17]: inactive
- Activity [18]: Active
- Activity (HCC1500): Active
- Activity (HCC1428 [19]): Active
- Activity [20]: inactive
- Activity (HCC1428 [21]): Active
- Activity (HCC1428 [22]): inactive
